Measurements: US5164400A, “Pyrroloquinoline compounds” (Fujisawa Pharmaceutical Co., Ltd., priority 1989, dated 1992)

What was measured:
[1] = target: T1, rat liver 3-Hydroxy-3-methylglutary-Coenzyme A Reductase (Rattus norvegicus, UniProt P51639); test: Assay for rat liver 3-Hydroxy-3-methylglutary-Coenzyme A Reductase Activity (in vitro); type: biochemical; details: enzyme solubilized from rat liver microsomes, pH 7.4, 37° C., 20 minutes
T1 construct: from tissue; host or cells: rat liver microsomes (solubilized, purified through second ammonium sulfate precipitation)
T1 sequence (P51639 1-887): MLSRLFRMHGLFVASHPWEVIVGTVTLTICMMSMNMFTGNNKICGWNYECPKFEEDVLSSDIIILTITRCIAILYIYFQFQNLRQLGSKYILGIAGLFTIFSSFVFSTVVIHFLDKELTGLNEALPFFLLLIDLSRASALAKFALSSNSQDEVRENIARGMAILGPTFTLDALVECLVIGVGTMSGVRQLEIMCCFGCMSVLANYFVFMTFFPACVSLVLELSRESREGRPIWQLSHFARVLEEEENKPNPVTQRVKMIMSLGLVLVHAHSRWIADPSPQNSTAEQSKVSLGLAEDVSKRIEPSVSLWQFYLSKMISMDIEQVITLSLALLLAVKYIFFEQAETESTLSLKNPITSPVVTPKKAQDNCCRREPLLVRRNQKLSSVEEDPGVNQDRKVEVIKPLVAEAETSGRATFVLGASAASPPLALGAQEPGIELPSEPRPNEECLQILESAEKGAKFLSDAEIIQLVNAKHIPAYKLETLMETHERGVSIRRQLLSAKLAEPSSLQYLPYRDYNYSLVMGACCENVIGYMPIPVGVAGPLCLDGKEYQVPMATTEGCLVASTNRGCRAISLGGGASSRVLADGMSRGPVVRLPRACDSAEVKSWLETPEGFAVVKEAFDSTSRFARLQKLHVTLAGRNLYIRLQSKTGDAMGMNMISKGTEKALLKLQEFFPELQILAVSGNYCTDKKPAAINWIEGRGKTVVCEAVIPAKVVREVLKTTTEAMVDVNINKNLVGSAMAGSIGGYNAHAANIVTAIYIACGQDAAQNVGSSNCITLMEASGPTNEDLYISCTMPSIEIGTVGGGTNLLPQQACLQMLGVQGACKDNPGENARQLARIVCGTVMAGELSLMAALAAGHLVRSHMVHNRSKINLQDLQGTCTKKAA
Experimental: (1) Test 1 [Assay for rat liver 3-Hydroxy-3-methylglutary-Coenzyme A Reductase Activity (in vitro)]
Five μl or an enzyme solution, solubilized from rat liver microsomes and purified through the second ammonium sulfate precipitation step, is added to 35 μl of a reaction mixture containing 1.11 kBg(=0.03 μCi) or 3-hydroxy-3-metyhl [3-^14 C] glutary coenzyme A, 100 mM potassium phosphate buffer, pH 7.4, 10 mM ethylenediaminetetraacetic acid (EDTA), 10 mM dithiothreitol with or without the graded concentrations of the test compound. The reaction is started by addition of 10 μl of 25 mM β-nicotinamide adenine dinucleotide phosphate, reduced form (NADPH). The mixture is incubated at 37° C. for 20 minutes. The reaction is terminated by addition of 10 μl of 2N hydrochloric acid. After an additional incubation for 15 minutes at 37° C., a 20 μl aliquot of the mixture is applied to a Silica Gel 60 F-254 plate (made by Merck & Co., Inc.). The chromatograms are developed in benzene/acetone (1:1). Sections of the thin layer plates where the mevalonolactone is located are scraped and the radioactivity are counted.

Sterol Synthesis = test: Assay for Sterol Synthesis in Rats (in vivo); design: species or system Male SD rats; details: dose 10.0 mg/kg, oral intubation, [1-^14 C] acetate i.p. 1 hour after compound, blood after 50 minutes
Experimental: (2) Test 2 [Assay for Sterol Synthesis in Rats (in vivo)]
Male SD rats are administered the test compound by oral intubation. One hour after compound administration, the rats are injected intraperitoneally with sodium [1-^14 C] acetate at 3.7 MBq/kg (=100 μCi/kg). After 50 minutes, 2.5 ml of blood samples are taken by cardiac puncture under short-term ether anesthesia. The plasma, obtained by centrifugation, is hydrolyzed and nonsaponifiable lipids are extracted with the petroleum ether. Sterols are isolated from these extracts as digitonide, dissolved in 1ml of methanol and the radioactivity is counted.

Row | IC50 [1] [nM] | SMILES | Inhibition (%) (Sterol Synthesis)
1 | 53.5 | COc1cc(F)ccc1-c1c(/C=C/[C@@H](O)C[C@@H](O)CC(=O)O)n2c3c(cccc13)CCC2(C)C (relative stereo) [Compound A] | 95.7
2 | 25.7 | COc1cc(F)ccc1-c1c(/C=C/C(O)CC(O)CC(=O)O)n2c3c(cccc13)CCC2(C)C (single isomer, unassigned) [Compound B, sodium (+)-erythro-(E)-7-[5,6-dihydro-4,4-dimethyl-1-(4-fluoro-2-methoxyphenyl)-4H-pyrrolo[3,2,1-ij]quinolin-2-yl]-3,5-dihydroxyhept-6-enoate] | 
